We go through two compounds from patent US20090196910A1, “Sustained-Release Preparation of Statin Drugs” (PFICKER PHARMACEUTICALS LTD., priority 2005, published 2009).

The subject of data set [1] is carboxylate hydrolases in human blood. Description: Hydrolysis of 4-esters of statin drugs by ester hydrolases in vitro. Particulars: pH 6.5-7.5. Format: in vitro ADME. From the text: As shown in the in vitro experiments, the esters of statin drugs formed at the 4-hydroxyl group can be transformed into statin drugs by many dominant human ester hydrolases at a pH of 6.5-7.5.

For data set [2] the following is noted: oral administration; cited from earlier work.

Molecules are shown by their SMILES.

In the case of `CCC(C)(C)C(=O)O[C@H]1C[C@@H](C)C=C2C=C[C@H](C)C(CC[C@@H]3C[C@@H](OC(C)=O)CC(=O)O3)C21` (some centres unmarked) [4-acetate of simvastatin], the “transformation into the statin drug by ester hydrolases” value in data set [1] is recorded as “readily transformed into simvastatin”.
Regarding `CC(C)c1c(C(=O)Nc2ccccc2)c(-c2ccccc2)c(-c2ccc(F)cc2)n1CC[C@@H](O)C[C@@H](O)CC(=O)O` [atovastatin], the bio-availability result in data set [2] is “no more than 14%”.
